Source: patent US20100212218A1, “5-(SUBSTITUTED METHYL) 2-METHYLFURAN” (FURANIX TECHNOLOGIES B.V., priority 2007, published 2010)

Test: Fuel solubility: miscibility in blends with commercial diesel
Format: physicochemical
Source text: Fuel solubility is a primary concern for diesel fuel applications. Not all highly polar oxygenates have good solubility in the current commercial diesel fuels.

[1] = all blend ratios with commercial diesel

Row | miscibility with commercial diesel (5 vol % blend with commercial diesel) | miscibility with commercial diesel (25 vol % blend with commercial diesel) | miscibility with commercial diesel (40 vol % blend with commercial diesel) | Compound | miscibility with commercial diesel [1]
1 | completely miscible | phase separation occurs | phase separation occurs | CCOCc1ccc(C=O)o1 [EMF, 5-(ethoxymethyl)furfural] | 
2 |  |  |  | Cc1ccc(COC(C)(C)C)o1 [5-(tertbutoxymethyl)-2-methylfuran] | miscible in all blend ratio's
3 |  |  |  | CCOCc1ccc(C)o1 [5-(ethoxymethyl)-2-methylfuran] | miscible in all blend ratio's
